For test [1], the target named is Potassium channel subfamily K member 9 (Homo sapiens) (UniProt Q9NPC2). Description: Stabilization of human HA-tagged TASK-3 interaction with 14-3-3 in Xenopus laevis oocytes assessed as increase of TASK-3 expression in plasma membrane at 10 uM by antibody-based luminometric assay relative to control. The test is classed as cell-based.
The target of test [2] is T1, 14-3-3 protein sigma (Homo sapiens, UniProt P31947).
T1 sequence (P31947 whole entry): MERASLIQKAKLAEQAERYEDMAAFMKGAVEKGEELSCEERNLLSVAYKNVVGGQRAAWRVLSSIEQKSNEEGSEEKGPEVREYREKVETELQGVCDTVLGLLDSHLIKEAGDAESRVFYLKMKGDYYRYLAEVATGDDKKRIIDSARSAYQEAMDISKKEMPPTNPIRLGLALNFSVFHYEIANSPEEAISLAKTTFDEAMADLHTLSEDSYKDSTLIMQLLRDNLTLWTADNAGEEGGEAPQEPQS
Kind of test: Inhibition of TMR-GG-RLSHpSSLPG-NH2 binding to recombinant human GST-tagged 14-3-3-sigma preincubated for 30 mins followed by TMR-GG-RLSHpSSLPG-NH2 addition and measured after 60 mins by fluorescence polarization assay.

The target in test [3] is T2, 14-3-3 protein zeta/delta (Homo sapiens, UniProt P63104).
T2 sequence (P63104 whole entry): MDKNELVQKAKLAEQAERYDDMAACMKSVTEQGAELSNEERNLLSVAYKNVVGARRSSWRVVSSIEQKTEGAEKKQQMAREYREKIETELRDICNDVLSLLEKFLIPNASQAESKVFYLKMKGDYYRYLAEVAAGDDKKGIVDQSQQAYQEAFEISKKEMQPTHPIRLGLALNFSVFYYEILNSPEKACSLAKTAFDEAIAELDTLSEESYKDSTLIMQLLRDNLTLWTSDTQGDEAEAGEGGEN
Kind of test: Binding affinity to recombinant human His-tagged 14-3-3zeta expressed in Escherichia coli K12 by ITC method.

The target of test [4] is T2, 14-3-3 protein zeta/delta. Description: Binding affinity to human full length 14-3-3zeta by fluorescence polarization assay.
The subject of test [5] is DG-75. Kind of test: Growth inhibition of human DG75 cells after 48 hrs by trypan blue exclusion method. The settings on record: DG-75, 48 h. It counts as functional, cell-based.
The target in test [6] is T3, 14-3-3 protein gamma (Homo sapiens, UniProt P61981).
T3 sequence (P61981 whole entry): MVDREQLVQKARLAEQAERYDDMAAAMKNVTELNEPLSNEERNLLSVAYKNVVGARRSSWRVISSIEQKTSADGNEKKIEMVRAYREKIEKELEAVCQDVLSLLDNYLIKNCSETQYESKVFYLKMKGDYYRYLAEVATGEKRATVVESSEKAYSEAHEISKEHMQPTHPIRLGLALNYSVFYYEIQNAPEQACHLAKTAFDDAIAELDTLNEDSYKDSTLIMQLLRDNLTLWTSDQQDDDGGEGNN
Description: Binding affinity to GST-tagged 14-3-3-gamma (unknown origin) expressed in Escherichia coli BL21(DE3) assessed as inhibition of interaction with PRAS40 in African green monkey COS7 cells preincubated with protein followed by cell addition by ELISA.

Potassium channel subfamily K member 9 (Homo sapiens), sequence (Q9NPC2 whole entry): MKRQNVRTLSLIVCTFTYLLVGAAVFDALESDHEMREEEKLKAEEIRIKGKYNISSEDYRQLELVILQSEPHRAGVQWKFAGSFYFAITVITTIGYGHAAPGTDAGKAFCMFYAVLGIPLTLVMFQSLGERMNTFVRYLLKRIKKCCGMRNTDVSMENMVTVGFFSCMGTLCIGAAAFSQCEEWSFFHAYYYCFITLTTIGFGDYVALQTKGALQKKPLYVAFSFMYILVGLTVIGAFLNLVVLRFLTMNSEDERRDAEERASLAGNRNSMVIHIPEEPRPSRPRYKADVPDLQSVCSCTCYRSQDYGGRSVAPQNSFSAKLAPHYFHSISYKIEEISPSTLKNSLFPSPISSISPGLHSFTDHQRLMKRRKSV

Turning to `COC[C@H]1CC[C@@H]2/C1=C\[C@]1(C)C(=C(C(C)C)[C@@H]3CCO[C@@H]31)[C@@H](O[C@H]1C[C@@H]3COC(C)(C)O[C@H]3[C@H](O)[C@H]1O)[C@H](O)[C@@H]2C`, the Activity in test [1] stood at 45%.
Regarding `CC(C)=CC(=O)N[C@@H](COP(=O)(O)O)C(=O)NCc1ccc2c(c1)OCO2`, in test [2], the half-maximal inhibitory concentration (IC50) was in the range of 2.6 to 3.6 µM.
On to `COC[C@H]1CC[C@@H]2/C1=C\[C@]1(C)C(=C([C@H](C)COC(C)=O)CC1OCc1ccccc1/C=N/OC[C@@H](NC(=O)[C@H](CC(=O)O)NC(=O)[C@H](Cc1ccc(O)cc1)NC(=O)[C@H](CO)NC(=O)[C@H](CCC(N)=O)NC(=O)CNS(=O)(=O)c1cccc3c(N(C)C)cccc13)C(C)C)[C@@H](O)[C@H](O)[C@@H]2C` (stereo not given in full), for which the dissociation constant (Kd) in test [3] stood at 0.37 µM.
On to `CC(C)=CC(=O)N[C@@H](COP(=O)(O)O)C(=O)NCCc1ccc(O)cc1`, for which the IC50 in test [2] was in the range of 2.6 to 3.6 µM.
On to `O=C(CNC(=O)c1ccc(CCl)cc1)N[C@@H](COP(=O)(O)O)C(=O)NCCc1ccc(O)cc1`, for which the concentration for half-maximal inhibition (IC50) in test [2] fell in the range of 2.6 to 3.6 µM.
Regarding `[N-]=[N+]=Nc1ccc(C(=O)NCC(=O)N[C@@H](COP(=O)(O)O)C(=O)NCCc2ccc(O)cc2)cc1`, in test [2], the IC50 is 2.6 to 3.6 µM.
Compound `CC(C)C[C@H](NC(=O)[C@H](CC(=O)O)NC(=O)[C@]1(C)CCCCCCCCCCCC[C@](C)(NC(=O)CNC(=O)[C@@H](N)CCC(N)=O)C(=O)N[C@@H](CC(C)C)C(=O)N[C@@H](CC(=O)O)C(=O)N[C@@H](C)C(=O)N1)C(=O)N[C@@H](C)C(=O)N[C@@H](CO)C(=O)O` came in with a Kd in test [4] of 0.041 µM.
The compound `CN(CCCCCl)P(=O)(OCc1ccc([N+](=O)[O-])o1)C(F)(F)C[C@H](NC(=O)CNC(=O)c1ccc(N)cc1)C(=O)NCCc1ccc(O)cc1` (stereo not given in full) gave an IC50 in test [5] of 5 µM.
For the compound `Cc1nc(/N=N/c2ccc(C(=O)O)cc2)c(COP(=O)(O)O)c(C=O)c1O`, in test [6], the 50% inhibitory concentration (IC50) stood at 16.4 µM.
On to `O=C(CNC(=O)c1ccc(CCl)cc1)N[C@@H](COP(=O)(O)O)C(=O)NCc1ccc2c(c1)OCO2`, for which the IC50 in test [2] lay in the range of 2.6 to 3.6 µM.
